Measurements taken from patent publication US11447525B2 (NIIGATA UNIVERSITY, priority 2018, dated 2022).
“Also recorded” adds a separate entry of the source. Non-standard residues stand in square brackets, D forms with d. Residues, ends and D or L forms follow the SMILES beside them. No end group written: not given here. *: point of attachment. 5FAM = O=C1OC2(c3ccc(O)cc3Oc3cc(O)ccc32)c2ccc(C(=O)*)cc21; NMeR = CN[C@@H](CCCNC(=N)N)C(=O)O

Assays:
[1] = tested on: BxPC3 cells, PK-8 cells, AsPC1 cells and MIA-Paca2 cells (PDAC); test: Accumulation of PCPP11 and partially deleted peptides in cells (Reference Example 3); type: cell-based, human; settings: for order of the strength of fluorescence in the pancreatic cancer cells: same method as Test Example 2; for fluorescence detected (absorbed fluorescence): same method as Test Example 2 (2 μM, 37° C., 2 hours)
Method: Test were conducted confirming the accumulation of PCPP11 and partially deleted peptides thereof in BxPC3 cells, PK-8 cells, AsPC1 cells and MIA-Paca2 cells (all cell lines derived from human invasive pancreatic ductal adenocarcinoma (PDAC)) and in H2110 cells (lung adenocarcinoma cells). The peptides shown below in Table 10 were used.
Using the same method as Test Example 2, each peptide was added to each of the cells and then observed under a microscope. In FIG. 16, “full length” indicates the cells to which FAM-PCPP11 was added, “trunc-ver1” indicates cells to which a trunc-ver1-PCPP11 was added, “trunc-ver2” indicates cells to which a trunc-ver2-PCPP11 was added, and “trunc-ver3” indicates cells to which a trunc-ver3-PCPP11 was added.

[2] = human blood plasma having a concentration of 50% by mass; settings: up to 120 minutes
[3] = Degradation test by human blood plasma, MALDI-TOFMS analysis; type: in vitro ADME; settings: 50% by mass human blood plasma; 120 min; read-out: degradation resistance (proportion of the peptide retained without degradation)
Method: Specifically, a peptide composed of the amino acid sequence represented by SEQ ID NO: 1 (hereafter sometimes referred to as “PCPP11”) was added to human blood plasma having a concentration of 50% by mass, the mixture was sampled immediately after starting the degradation test (after 0 minutes), and then after 5 minutes, after 10 minutes, after 20 minutes, after 30 minutes, after 60 minutes and after 120 minutes, and the samples were analyzed by MALDI-TOFMS (Matrix Assisted Laser Desorption/Ionization-Time Of Flight Mass Spectrometry). In Table 2, “UK” is an abbreviation for “unknown”. Further, the No. shown for each peptide in Table 2 corresponds with the numerical value recorded on the peaks of the graphs shown in FIG. 1.
Each of the peptides described above was added to human blood plasma having a concentration of 50% by mass, the resulting mixture was sampled immediately after starting the degradation test (after 0 minutes), and then after 5 minutes, after 10 minutes, after 20 minutes, after 30 minutes, after 60 minutes and after 120 minutes, and the samples were analyzed by MALDI-TOFMS. The results are shown in FIGS. 2 to 6 and Tables 4 to 6 shown below. Furthermore, the data for the degradation test by human blood plasma using PCPP11 from Reference Example 1 and the degradation tests by human blood plasma using each of the above peptides are collated in FIG. 7 and Table 7. The SEQ ID NO listed for the FAM-labeled peptide represents the SEQ ID NO of the peptide portion. Further, the No. shown for each peptide in Tables 4 to 6 corresponds with the numerical value recorded on the peaks of the graphs shown in FIGS. 2 to 6. In each table, in those cases where the numerical values are shown separated into an upper row and a lower row, the upper row value indicates the proportion (%) of peak area for two or more peptides relative to the total peak area in the MALDI-TOFMS analysis. On the other hand, the lower row value indicates the proportion (%) of each peptide when the peak area for the two or more peptides is deemed to be 100%. Moreover, for example, for the peptide No. 9 shown in Table 4, the left-side “70.0%” indicates the proportion (%) of the peptide No. 9 when the total peak area for the peptides No. 9 to 11 is deemed to be 100%, whereas the right-side “65%” indicates the proportion (%) of the peptide No. 9 relative to the total peak area in the MALDI-TOFMS analysis. This system is also used in the following tables.

Row | Compound | order of the strength of fluorescence in the pancreatic cancer cells [1] | fragment found [2] | also measured
1 | C[C@@H](O)[C@H](NC(=O)[C@@H](NC(=O)[C@@H]1CCCN1C(=O)[C@H](CCCNC(=N)N)NC(=O)c1ccc2c(c1)C(=O)OC21c2ccc(O)cc2Oc2cc(O)ccc21)[C@@H](C)O)C(=O)N[C@@H](Cc1c[nH]c2ccccc12)C(=O)N[C@@H](Cc1c[nH]cn1)C(=O)N[C@@H](CCCCN)C(=O)N1CCC[C@H]1C(=O)O [FAM-trunc-ver1-PCPP11] (5FAM-RPTTWHKP-OH; C-terminus assumed) | full-length≥trunc-ver3>trunc-ver1>>trunc-ver2 |  | 
2 | C[C@@H](O)[C@H](NC(=O)[C@@H](NC(=O)[C@@H]1CCCN1C(=O)[C@H](CCCNC(=N)N)NC(=O)[C@H](CCCNC(=N)N)NC(=O)c1ccc2c(c1)C(=O)OC21c2ccc(O)cc2Oc2cc(O)ccc21)[C@@H](C)O)C(=O)N[C@@H](Cc1c[nH]c2ccccc12)C(=O)N[C@@H](Cc1c[nH]cn1)C(=O)O [FAM-trunc-ver3-PCPP11, [FAM]-RRPTTWH] (5FAM-RRPTTWH-OH; C-terminus assumed) | full-length≥trunc-ver3>trunc-ver1>>trunc-ver2 |  | 
3 | C[C@@H](O)[C@H](NC(=O)[C@@H](NC(=O)[C@@H]1CCCN1C(=O)[C@H](CCCNC(=N)N)NC(=O)c1ccc2c(c1)C(=O)OC21c2ccc(O)cc2Oc2cc(O)ccc21)[C@@H](C)O)C(=O)N[C@@H](Cc1c[nH]c2ccccc12)C(=O)O [FAM-trunc-ver4-PCPP11, [FAM]-RPTTW] (5FAM-RPTTW-OH; C-terminus assumed) |  |  | fluorescence detected (absorbed fluorescence) [1]: almost no fluorescence was observed
4 | C[C@@H](O)[C@H](NC(=O)[C@@H](NC(=O)[C@@H]1CCCN1C(=O)c1ccc2c(c1)C(=O)OC21c2ccc(O)cc2Oc2cc(O)ccc21)[C@@H](C)O)C(=O)N[C@@H](Cc1c[nH]c2ccccc12)C(=O)N[C@@H](Cc1c[nH]cn1)C(=O)O [FAM-trunc-ver5-PCPP11, [FAM]-PTTWH] (5FAM-PTTWH-OH; C-terminus assumed) |  |  | fluorescence detected (absorbed fluorescence) [1]: almost no fluorescence was observed
5 | R-mR-PTTWHKP-G-RRPTTWHKP (H-R[NMeR]PTTWHKPGRRPTTWHKP-OH; N-terminus and C-terminus assumed; SMILES C[C@@H](O)[C@H](NC(=O)[C@@H](NC(=O)[C@@H]1CCCN1C(=O)[C@H](CCCNC(=N)N)NC(=O)[C@H](CCCNC(=N)N)NC(=O)CNC(=O)[C@@H]1CCCN1C(=O)[C@H](CCCCN)NC(=O)[C@H](Cc1c[nH]cn1)NC(=O)[C@H](Cc1c[nH]c2ccccc12)NC(=O)[C@@H](NC(=O)[C@@H](NC(=O)[C@@H]1CCCN1C(=O)[C@H](CCCNC(=N)N)N(C)C(=O)[C@@H](N)CCCNC(=N)N)[C@@H](C)O)[C@@H](C)O)[C@@H](C)O)C(=O)N[C@@H](Cc1c[nH]c2ccccc12)C(=O)N[C@@H](Cc1c[nH]cn1)C(=O)N[C@@H](CCCCN)C(=O)N1CCC[C@H]1C(=O)O) |  |  | not cleaved [2]: 100% after 120 minutes
6 | RRPTTWHKP-G-RRPTTWHKP (RRPTTWHKPGRRPTTWHKP) |  | TTWHKP-G-RRPTTWHKP, 60 min; also recorded: RPTTWHKP-G-RRPTTWHKP, 20 min | 
7 | RRPTTWHKP-G-pkhwttprr (H-RRPTTWHKPG[dP][dK][dH][dW][dT][dT][dP][dR][dR]-OH; N-terminus and C-terminus assumed; SMILES C[C@H](O)[C@@H](NC(=O)[C@@H](Cc1c[nH]c2ccccc12)NC(=O)[C@@H](Cc1c[nH]cn1)NC(=O)[C@@H](CCCCN)NC(=O)[C@H]1CCCN1C(=O)CNC(=O)[C@@H]1CCCN1C(=O)[C@H](CCCCN)NC(=O)[C@H](Cc1c[nH]cn1)NC(=O)[C@H](Cc1c[nH]c2ccccc12)NC(=O)[C@@H](NC(=O)[C@@H](NC(=O)[C@@H]1CCCN1C(=O)[C@H](CCCNC(=N)N)NC(=O)[C@@H](N)CCCNC(=N)N)[C@@H](C)O)[C@@H](C)O)C(=O)N[C@@H](C(=O)N1CCC[C@@H]1C(=O)N[C@H](CCCNC(=N)N)C(=O)N[C@H](CCCNC(=N)N)C(=O)O)[C@H](C)O) |  | RPTTWHKP-G-pkhwttprr, Start; also recorded: TTWHKP-G-pkhwttprr, Start | 
8 | RRPTTWHKP-G-RRPTTWHKP-G-RRPTTWHKP (RRPTTWHKPGRRPTTWHKPGRRPTTWHKP) |  |  | not cleaved [2]: no degradation products within 120 minutes; 100% at 120 min
9 | C[C@@H](O)[C@H](NC(=O)c1ccc2c(c1)C(=O)OC21c2ccc(O)cc2Oc2cc(O)ccc21)C(=O)N[C@H](C(=O)N[C@@H](Cc1c[nH]c2ccccc12)C(=O)N[C@@H](Cc1c[nH]cn1)C(=O)N[C@@H](CCCCN)C(=O)N1CCC[C@H]1C(=O)O)[C@@H](C)O [FAM-trunc-ver2-PCPP11, [FAM]-TTWHKP] (5FAM-TTWHKP-OH; C-terminus assumed) | full-length≥trunc-ver3>trunc-ver1>>trunc-ver2 |  | fluorescence detected (absorbed fluorescence) [1]: marked reduction in absorbed fluorescence
10 | RRPTTWHKP |  | RPTTWHKP and RRPTTWH and RPTTWH and TTWHKP and TTWH and TWH, 30 min and WH, 60 min | cleaved bond [2]: arginine-arginine, 5 min
11 | C[C@@H](O)[C@H](NC(=O)[C@@H](NC(=O)[C@@H]1CCCN1C(=O)[C@H](CCCNC(=N)N)NC(=O)[C@H](CCCNC(=N)N)NC(=O)c1ccc2c(c1)C(=O)OC21c2ccc(O)cc2Oc2cc(O)ccc21)[C@@H](C)O)C(=O)N[C@@H](Cc1c[nH]c2ccccc12)C(=O)N[C@@H](Cc1c[nH]cn1)C(=O)N[C@@H](CCCCN)C(=O)N1CCC[C@H]1C(=O)O [No. 13, reference compound] (5FAM-RRPTTWHKP-OH; C-terminus assumed) | full-length≥trunc-ver3>trunc-ver1>>trunc-ver2 |  | remaining at 2 h [3]: 29%
12 | [FAM]-RRPTTWHKP (5FAM-RRPTTWHKP-OH; C-terminus assumed; SMILES C[C@@H](O)[C@H](NC(=O)[C@@H](NC(=O)[C@@H]1CCCN1C(=O)[C@H](CCCNC(=N)N)NC(=O)[C@H](CCCNC(=N)N)NC(=O)c1ccc2c(c1)C(=O)OC21c2ccc(O)cc2Oc2cc(O)ccc21)[C@@H](C)O)C(=O)N[C@@H](Cc1c[nH]c2ccccc12)C(=O)N[C@@H](Cc1c[nH]cn1)C(=O)N[C@@H](CCCCN)C(=O)N1CCC[C@H]1C(=O)O) |  | [FAM]-RRPTTWH, 10 min | 
